From patent US20250049829A1, “NOVEL T[…] TARGETING THE H-RAS ISOFORM WITH G12D MUTATION INVOLVED IN CANCER FORMATION” (ISTANBUL MEDIPOL UNIVERSITESI, priority 2021, published 2025)

Biological target: T1, interaction of H-RASG12D with RAF (Homo sapiens, UniProt P01112, G12D)
T1 construct: expressed in transfected cells; host or cells: HEK-293T
Test: Active RAS pull-down (GST-Raf-RBD) and western blot in HRASG12D-overexpressing HEK-293T cells
Assay type: cell-based
Details: for active RAS levels: 293T-HRASG12D cells, pull-down with RAF, western blot
Description: The candidate molecules determined as a result of molecular dynamics studies were applied to HEK-293T cells at different concentrations in order to determine the cytotoxic and optimum doses for the cells. Optimum dose ranges were determined for each molecule. HEK-293T/HRASG12D cells were treated with Cerubidine […], one of these candidate molecules, and active RAS was examined due to the interaction of RAS protein in cells with RAF. In experiments carried out on this molecule; lysate was collected at different time points from cells treated with non-toxic concentrations of Cerubidine. Active RAS precipitation (Pull Down) and subsequent Western-blot experiments performed on these lysates were used to investigate the effect of Cerubidine molecule on active RAS at different time points for 12 hours in terms of G12D mutation specificity.
In the said study, HEK-293T cells with high expression of RAS proteins carrying the G12D mutation were used to examine the effect of candidate ligands on the interaction of H-RASG12D with RAF. First of all, an “Active Ras Pull-Down and Detection Kit (Thermo)” was provided to detect the interaction of the active RAS protein with RAF, and therefore the active RAS proteins involved in this interaction. Since the working principle of the kit is based on the precipitation of RAS proteins interacting with RAF, immunoprecipitation experiments were performed accordingly, since the use of the kit within the scope of this experiment was suitable for the target.
The isolated proteins were first treated with GTPyS and GDP, and then bound to the glutathione-containing column with GST-Raf-RBD. Then, the presence of the RAS protein was examined by western blot experiment in the samples collected by elution from the column.
Then, established 293T-HRAS^G12D cells were treated with Cerubudine, one of the candidate molecules, at different doses (non-cytotoxic), and active RAS proteins were precipitated in the presence of RAF in the lysates collected from cells, following the kit protocol validated in FIG. 5. Then, active RAS, HRAS and RAS^G12D levels were analyzed by western blot at different time points.
Here, HRASG12D overexpressed cell lines (HEK-293T/HRAS^G12D) were treated with increasing doses of Cerubudine and lysate was obtained for protein isolation at different time points (0.5 h, 1 h, 3 h, 12 h). Active RAS precipitation was performed using isolated proteins and RAS, RASG12D and HRAS protein levels were examined by Western blot. Within the scope of the results obtained, there was a decrease in active RAS protein levels depending on the dose increase, especially in the 12th hour treated samples. Cerubidine treatment in cell lines overexpressing HRASG12D reduced the interaction of active RAS protein with RAF.

## COc1cccc2c1C(=O)c1c(O)c3c(c(O)c1C2=O)C[C@@](O)(C(C)=O)C[C@@H]3O[C@H]1C[C@H](N)[C@H](O)[C@H](C)O1 [Cerubidine, cerubidine]
5 μM and 10 μM, western blot for active RAS, HRAS and RASG12D
  reduction in G12D mutant HRAS versus wild type HRAS levels: not wild type HRAS levels
5 μM
  active RAS levels: significant decrease
10 μM
  active RAS levels: significant decrease
10 μM, at the end of 12 hours
  effect on active RAS levels, dose and time of strongest effect: most pronounced effect
Cell lines overexpressing HRASG12D
  interaction of active RAS protein with RAF: reduced
Increasing doses, 12th hour treated samples, HEK-293T/HRASG12D
  active RAS protein levels depending on the dose increase: decrease
Membrane with G12D specific antibody
  mutant specificity of decrease in active RAS levels (G12D specific antibody): mutant specific
